Test results from the NIST ThermoML archive (doi:10.1016/j.tca.2015.08.013).
Numbers after ± are expanded uncertainties.

Key:
[1] = refractive index (Na D-line) (dimensionless); details: 101.33 kPa, Liquid, Standard Abbe refractometry
[2] = relative permittivity at various frequencies (dimensionless); details: 99 kPa, Liquid, Frequency=2 MHz, Parallel plate capacitor

c1ccoc1 [furan]
Details | refractive index, [1] | relative permittivity, [2]
278.15 K | – | 3.124 ± 0.016
280.65 K | – | 3.094 ± 0.015
283.15 K | 1.42784 ± 0.00037 | 3.068 ± 0.015
285.65 K | 1.42625 ± 0.00037 | 3.036 ± 0.015
288.15 K | 1.42463 ± 0.00037 | 3.009 ± 0.015
290.65 K | 1.42303 ± 0.00037 | 2.988 ± 0.015
293.15 K | 1.42141 ± 0.00037 | 2.958 ± 0.015
295.65 K | 1.41979 ± 0.00037 | 2.934 ± 0.015
298.15 K | 1.41814 ± 0.00037 | 2.913 ± 0.015
300.65 K | 1.4165 ± 0.00037 | 2.892 ± 0.014
303.15 K | 1.41485 ± 0.00037 | 2.865 ± 0.014

Cc1ccco1 [2-methylfuran]
Details | refractive index, [1] | relative permittivity, [2]
278.15 K | – | 2.976 ± 0.015
280.65 K | – | 2.967 ± 0.015
283.15 K | 1.43942 ± 0.00037 | 2.944 ± 0.015
285.65 K | 1.43794 ± 0.00037 | 2.933 ± 0.015
288.15 K | 1.43644 ± 0.00037 | 2.911 ± 0.015
290.65 K | 1.43495 ± 0.00037 | 2.893 ± 0.014
293.15 K | 1.43344 ± 0.00037 | 2.874 ± 0.014
295.65 K | 1.43194 ± 0.00037 | 2.854 ± 0.014
298.15 K | 1.43044 ± 0.00037 | 2.84 ± 0.014
300.65 K | 1.42893 ± 0.00037 | 2.814 ± 0.014
303.15 K | 1.42742 ± 0.00037 | 2.8 ± 0.014
305.65 K | 1.4259 ± 0.00037 | 2.775 ± 0.014
308.15 K | 1.4244 ± 0.00037 | 2.76 ± 0.014
310.65 K | 1.42289 ± 0.00037 | 2.735 ± 0.014
313.15 K | 1.42138 ± 0.00037 | 2.72 ± 0.014
315.65 K | 1.41984 ± 0.00037 | 2.696 ± 0.013
318.15 K | 1.41831 ± 0.00037 | 2.678 ± 0.013
320.65 K | 1.41675 ± 0.00037 | 2.656 ± 0.013
323.15 K | 1.41521 ± 0.00037 | 2.636 ± 0.013
325.65 K | 1.41366 ± 0.00037 | 2.617 ± 0.013
328.15 K | 1.41212 ± 0.00037 | 2.596 ± 0.013
330.65 K | 1.41059 ± 0.00037 | 2.577 ± 0.013
333.15 K | 1.40907 ± 0.00037 | 2.556 ± 0.013
335.65 K | 1.40747 ± 0.00037 | 2.538 ± 0.013
338.15 K | 1.40589 ± 0.00037 | 2.518 ± 0.013

Cc1ccc(C)o1 [2,5-dimethylfuran]
Details | refractive index, [1] | relative permittivity, [2]
278.15 K | – | 2.562 ± 0.013
280.65 K | – | 2.553 ± 0.013
283.15 K | 1.4477 ± 0.00037 | 2.538 ± 0.013
285.65 K | 1.44645 ± 0.00037 | 2.526 ± 0.013
288.15 K | 1.44494 ± 0.00037 | 2.516 ± 0.013
290.65 K | 1.44362 ± 0.00037 | 2.499 ± 0.013
293.15 K | 1.44218 ± 0.00037 | 2.492 ± 0.012
295.65 K | 1.44079 ± 0.00037 | 2.472 ± 0.012
298.15 K | 1.43942 ± 0.00037 | 2.462 ± 0.012
300.65 K | 1.43796 ± 0.00037 | 2.445 ± 0.012
303.15 K | 1.43665 ± 0.00037 | 2.434 ± 0.012
305.65 K | 1.43513 ± 0.00037 | 2.418 ± 0.012
308.15 K | 1.43383 ± 0.00037 | 2.404 ± 0.012
310.65 K | 1.4323 ± 0.00037 | 2.391 ± 0.012
313.15 K | 1.43098 ± 0.00037 | 2.376 ± 0.012
315.65 K | 1.42947 ± 0.00037 | 2.364 ± 0.012
318.15 K | 1.42815 ± 0.00037 | 2.349 ± 0.012
320.65 K | 1.42664 ± 0.00037 | 2.337 ± 0.012
323.15 K | 1.42525 ± 0.00037 | 2.321 ± 0.012
325.65 K | 1.42381 ± 0.00037 | 2.31 ± 0.012
328.15 K | 1.42239 ± 0.00037 | 2.292 ± 0.011
330.65 K | 1.42098 ± 0.00037 | 2.283 ± 0.011
333.15 K | 1.41948 ± 0.00037 | 2.272 ± 0.011
335.65 K | 1.41815 ± 0.00037 | 2.256 ± 0.011
338.15 K | 1.41657 ± 0.00037 | 2.245 ± 0.011
